For experiment [1], the target named is T1, mTRPV1 (mouse TRPV1) (Mus musculus, UniProt Q704Y3, INS430GGG).
T1 construct: full-length mTRPV1 cDNA in pEYFP-N3, C-terminal eYFP fusion, transiently expressed in HEK293 cells; homotetramer
The experiment can be described thus: patch-clamp of transfected HEK293 cells, concentration-response, Hill fit. Format: cell-based.

The target of experiment [2] is T2, mTRPV1 (mouse TRPV1) (Mus musculus, UniProt Q704Y3).
T2 construct: full-length mTRPV1 cDNA in pEYFP-N3, C-terminal eYFP fusion, transiently expressed in HEK293 cells; homotetramer
The experiment is described as above. Format: cell-based.

As a reminder, the EC50 is the concentration giving half of the maximal effect.

T2 sequence (Q704Y3 whole entry, the tested form may be a part): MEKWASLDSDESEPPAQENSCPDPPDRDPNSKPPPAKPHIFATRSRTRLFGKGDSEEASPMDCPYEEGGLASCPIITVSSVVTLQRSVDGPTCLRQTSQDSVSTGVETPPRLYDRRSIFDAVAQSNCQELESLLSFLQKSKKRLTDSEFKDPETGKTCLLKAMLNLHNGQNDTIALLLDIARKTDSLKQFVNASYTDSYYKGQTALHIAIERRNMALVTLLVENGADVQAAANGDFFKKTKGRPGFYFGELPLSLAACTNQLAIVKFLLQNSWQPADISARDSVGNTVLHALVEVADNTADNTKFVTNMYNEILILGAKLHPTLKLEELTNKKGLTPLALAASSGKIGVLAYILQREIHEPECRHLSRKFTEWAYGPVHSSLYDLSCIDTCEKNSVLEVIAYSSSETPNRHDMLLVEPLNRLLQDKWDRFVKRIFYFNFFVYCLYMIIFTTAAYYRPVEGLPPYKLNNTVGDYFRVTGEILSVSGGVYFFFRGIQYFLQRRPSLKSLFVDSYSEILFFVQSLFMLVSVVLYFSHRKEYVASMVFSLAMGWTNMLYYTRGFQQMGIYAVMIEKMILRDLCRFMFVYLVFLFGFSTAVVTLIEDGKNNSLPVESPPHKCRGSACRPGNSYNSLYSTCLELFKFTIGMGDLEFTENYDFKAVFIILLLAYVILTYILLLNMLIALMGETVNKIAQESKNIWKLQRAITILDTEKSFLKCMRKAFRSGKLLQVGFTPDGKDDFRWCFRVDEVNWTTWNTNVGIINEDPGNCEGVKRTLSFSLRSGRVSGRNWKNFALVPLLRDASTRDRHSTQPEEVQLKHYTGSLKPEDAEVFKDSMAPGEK
T1 sequence (Q704Y3 with tags, fused parts or gaps INS430GGG): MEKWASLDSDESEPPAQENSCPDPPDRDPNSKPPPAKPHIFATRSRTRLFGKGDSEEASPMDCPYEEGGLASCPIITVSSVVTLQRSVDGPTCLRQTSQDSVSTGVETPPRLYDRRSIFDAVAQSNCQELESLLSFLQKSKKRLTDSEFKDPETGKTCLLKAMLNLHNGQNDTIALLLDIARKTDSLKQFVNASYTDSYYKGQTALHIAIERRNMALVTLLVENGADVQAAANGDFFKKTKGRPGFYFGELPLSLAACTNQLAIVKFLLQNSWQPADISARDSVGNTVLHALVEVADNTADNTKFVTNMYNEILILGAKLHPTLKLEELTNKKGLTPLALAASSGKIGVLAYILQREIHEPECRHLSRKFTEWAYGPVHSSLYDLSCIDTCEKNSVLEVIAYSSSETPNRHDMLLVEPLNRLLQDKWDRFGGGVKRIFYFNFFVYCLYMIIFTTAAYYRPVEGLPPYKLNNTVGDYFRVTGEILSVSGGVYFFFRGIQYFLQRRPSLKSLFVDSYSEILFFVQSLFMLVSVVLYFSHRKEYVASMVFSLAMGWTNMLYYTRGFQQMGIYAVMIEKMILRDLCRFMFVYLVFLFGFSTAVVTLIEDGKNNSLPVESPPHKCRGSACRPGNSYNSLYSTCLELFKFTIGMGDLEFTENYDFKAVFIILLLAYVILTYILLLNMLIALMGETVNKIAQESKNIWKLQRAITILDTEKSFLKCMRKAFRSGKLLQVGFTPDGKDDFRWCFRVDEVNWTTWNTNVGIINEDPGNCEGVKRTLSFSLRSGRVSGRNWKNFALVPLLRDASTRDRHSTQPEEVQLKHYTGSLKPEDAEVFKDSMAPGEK

Turning to `COc1cc(CNC(=O)CCCC/C=C/C(C)C)ccc1O` [capsaicin], the figures for the EC50 on mTRPV1 (mouse TRPV1) [1] and at mTRPV1 (mouse TRPV1) [2] were 70 ± 30 nM and 150 ± 20 nM, respectively.

(Values after article PMC5035920, “Exploring functional roles of TRPV1 intracellular domains with unstructured peptide-insertion screening” (Scientific Reports, 2016).)
